Columns and labels:
human orexin 1 receptors = human orexin 1 receptors (Homo sapiens (Human), UniProt O43613); test: Calcium Accumulation in Cells (FLIPR), antagonism of orexin A; assay type: cell-based; details: for Ki: antagonism of orexin A, Cheng-Prusoff corrected, read-out: FLIPR hOx1R Ki; for inhibition at 10 µM: measured at a concentration of 10 μM of compound, read-out: FLIPR hOx1R % inhibition value
Experimental: (§1) Calcium Accumulation in Cells (FLIPR):
Cells expressing human orexin 1 or human orexin 2 receptors, were seeded at 8,000 cells/well in 384 well black-walled clear bottom, poly-D-lysine coated plates. After 24 h, the medium was removed and cells were washed once with phosphate buffered saline and serum-deprived overnight in assay buffer (130 mM NaCl, 5.4 mM KCl, 1.8 mM CaCl2, 0.8 mM MgSO4, 0.9 mM NaH2PO4, 25 mM glucose, 20 mM HEPES, pH 7.4) containing bovine serum albumin (1% w/v).
On the day of the experiment, the cells seeded in black plates were treated with assay buffer containing the Ca^2+ sensitive fluorescent dye Fluo4-AM (2 μM), and probenecid (0.1 mM). After 1 h plates were washed twice with, and resuspended in, assay buffer containing probenecid (0.1 mM) using a multi plate washer. The plates were placed into a FLIPR II (Fluorometric Imaging Plate Reader, Molecular Devices, Sunnyvale, Calif., USA) and baseline fluorescence (fluorescence light units, FLU) was measured (5 measurements, 2 S each; laser excitation 488 nm at 0.6-1 W, CCD camera exposure 0.4 s) before addition of buffer alone (basal) or containing test compounds (either compound of formula (I) or (I′) alone, agonist alone or agonist in the presence of various concentrations of compounds of formula (I) or (I′)). Fluorescence measurements were then continued every 1 S for 120 S followed by every 4 S for 240 S.
(§2) The measurements were typically made in two sequences:
(§3) In the first round, compounds of formula (I) or (I′) were tested alone, to detect possible agonist activity. Compounds of formula I or I′ were tested usually in a concentration range from 10^−9 M to 10^−5 M.
(§4) In the second round, performed one hour later (to allow for equilibration), Orexin A was tested either in the absence (calibration curves, Orexin A agonist controls) or in the presence of compounds of formula (I) or (I′) to determine antagonism.

human orexin 2 receptors = human orexin 2 receptors (Homo sapiens (Human), UniProt O43614); test: as above; assay type: cell-based; details: for Ki: antagonism of orexin A, Cheng-Prusoff corrected, read-out: FLIPR hOx2R Ki; for inhibition at 10 µM: measured at a concentration of 10 μM of compound, read-out: FLIPR hOx2R % inhibition value
Experimental: as §1
Cells expressing human orexin 1 or human orexin 2 receptors, were seeded at 8,000 cells/well in 384 well black-walled clear bottom, poly-D-lysine coated plates.
On the day of the experiment, the cells seeded in black plates were treated with assay buffer containing the Ca^2+ sensitive fluorescent dye Fluo4-AM (2 μM), and probenecid (0.1 mM). After 1 h plates were washed twice with, and resuspended in, assay buffer containing probenecid (0.1 mM) using a multi plate washer. […] Fluorescence measurements were then continued every 1 S for 120 S followed by every 4 S for 240 S.
as §2, §3, §4

Chain of human orexin 1 receptors (O43613 whole entry): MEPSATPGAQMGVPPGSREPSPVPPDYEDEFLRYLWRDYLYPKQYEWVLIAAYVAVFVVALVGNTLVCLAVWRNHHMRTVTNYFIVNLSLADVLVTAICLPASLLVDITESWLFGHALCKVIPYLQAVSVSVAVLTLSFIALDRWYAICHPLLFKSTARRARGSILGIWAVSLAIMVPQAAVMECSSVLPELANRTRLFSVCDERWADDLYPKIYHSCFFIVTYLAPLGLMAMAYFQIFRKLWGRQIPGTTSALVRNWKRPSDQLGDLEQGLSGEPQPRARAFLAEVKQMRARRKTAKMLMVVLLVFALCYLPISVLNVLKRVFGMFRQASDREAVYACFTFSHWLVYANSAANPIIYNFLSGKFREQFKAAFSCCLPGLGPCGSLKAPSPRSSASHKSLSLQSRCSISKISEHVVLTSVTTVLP
Chain of human orexin 2 receptors (O43614 whole entry): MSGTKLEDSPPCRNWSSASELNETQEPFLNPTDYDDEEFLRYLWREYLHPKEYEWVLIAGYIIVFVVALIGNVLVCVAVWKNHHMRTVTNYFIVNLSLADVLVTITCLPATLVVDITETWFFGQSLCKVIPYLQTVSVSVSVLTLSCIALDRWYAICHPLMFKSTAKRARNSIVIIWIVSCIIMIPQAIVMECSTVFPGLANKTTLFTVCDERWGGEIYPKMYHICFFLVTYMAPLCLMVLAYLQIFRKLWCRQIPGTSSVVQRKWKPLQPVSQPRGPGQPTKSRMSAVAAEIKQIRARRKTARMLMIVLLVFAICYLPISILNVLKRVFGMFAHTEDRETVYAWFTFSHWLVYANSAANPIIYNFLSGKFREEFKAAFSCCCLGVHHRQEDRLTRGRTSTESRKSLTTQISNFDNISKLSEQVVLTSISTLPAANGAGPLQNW

Structure (SMILES) | Ki (human orexin 1 receptors) [µM] | Ki (human orexin 2 receptors) [µM] | inhibition at 10 µM (human orexin 2 receptors) [%] | inhibition at 10 µM (human orexin 1 receptors) [%]
Cc1cc(OCC(=O)N[C@@H](C)CCc2ccccc2)nc2c1c(C1CC1)nn2C [Example 7.26, (S)-2-(3-cyclopropyl-1,4-dimethyl-1H-pyrazolo[3,4-b]pyridin-6-yloxy)-N-(4-phenylbutan-2-yl)acetamide] | 1.64 | 0.184 |  | 
C[C@H](NC(=O)COc1cc(C(F)(F)F)c2c(-c3ccccc3)n[nH]c2n1)c1ccccc1 [Example 1.2, (S)-2-(3-phenyl-4-(trifluoromethyl)-1H-pyrazolo[3,4-b]pyridin-6-yloxy)-N-(1-phenylethyl)acetamide] | 0.2 | 0.043 |  | 
COc1cccc([C@H](C)NC(=O)COc2cc(C)c3c(C4CC4)nn(C)c3n2)c1 [Example 7.12, (S)-2-(3-cyclopropyl-1,4-dimethyl-1H-pyrazolo[3,4-b]pyridin-6-yloxy)-N-(1-(3-methoxyphenyl)ethyl)acetamide] | 0.736 |  | 43 | 
Cc1ccnc(C(C)NC(=O)COc2cc(C)c3c(C4CC4)nn(C)c3n2)c1 (stereo not shown) [Example 7.21, 2-(3-cyclopropyl-1,4-dimethyl-1H-pyrazolo[3,4-b]pyridin-6-yloxy)-N-(1-(4-methylpyridin-2-yl)ethyl)acetamide] |  |  | 22 | < 10
Cc1cc(OCC(=O)NCCCc2ccccc2)nc2c1c(C1CC1)nn2C [Example 6.50, 2-(3-cyclopropyl-1,4-dimethyl-1H-pyrazolo[3,4-b]pyridin-6-yloxy)-N-(3-phenylpropyl)acetamide] |  |  | 42 | 10
Cc1cc(OCC(=O)NC(C)C2CC2)nc2c1c(C1CC1)nn2C (stereo not shown) [Example 6.53] |  |  | 38 | 17
Cc1ccc([C@H](C)NC(=O)COc2cc(C)c3c(-c4cn(C)cn4)nn(C)c3n2)cc1 [Example 4.13, (S)-2-(1,4-dimethyl-3-(1-methyl-1H-imidazol-4-yl)-1H-pyrazolo[3,4-b]pyridin-6-yloxy)-N-(1-p-tolylethyl)acetamide] | 1.16 | 0.626 |  | 
Cc1cc(OCC(=O)NCc2ccc3c(c2)OCO3)nc2c1c(-c1ccccc1)nn2C [Example 1.15, N-(benzo[d][1,3]dioxol-5-ylmethyl)-2-(1,4-dimethyl-3-phenyl-1H-pyrazolo[3,4-b]pyridin-6-yloxy)acetamide] |  |  | 39 | 44
COc1ccc([C@@H](C)NC(=O)COc2cc(C(F)(F)F)c3c(-c4ccccc4)nn(C)c3n2)cc1 [Example 1.59, (R)-N-(1-(4-methoxyphenyl)ethyl)-2-(1-methyl-3-phenyl-4-(trifluoromethyl)-1H-pyrazolo[3,4-b]pyridin-6-yloxy)acetamide] | 2.29 | 0.949 |  | 
CC(Oc1cc(C(F)(F)F)c2c(-c3ccccc3)nn(C)c2n1)C(=O)N[C@@H](C)c1ccccc1 (single isomer, unassigned) [Example 1.74] |  |  | < 10 | < 10
C[C@H](NC(=O)CNc1cc(C(F)(F)F)c2c(-c3ccccc3)nn(C)c2n1)c1ccccc1 [Example 3.1, (S)-2-(1-methyl-3-phenyl-4-(trifluoromethyl)-1H-pyrazolo[3,4-b]pyridin-6-ylamino)-N-(1-phenylethyl)acetamide] | 0.357 | 1.14 |  | 
Cc1ccc([C@H](C)NC(=O)COc2ccc3c(C4CC4)nn(C)c3n2)cc1 [Example 6.23, (S)-2-(3-cyclopropyl-1-methyl-1H-pyrazolo[3,4-b]pyridin-6-yloxy)-N-(1-p-tolylethyl)acetamide] | 1.1 | 0.237 |  | 
COc1ccc([C@H](C)NC(=O)COc2nc3c(cc2C)c(C2CC2)nn3C)cc1 [Example 6.76, (S)-2-(3-cyclopropyl-1,5-dimethyl-1H-pyrazolo[3,4-b]pyridin-6-yloxy)-N-(1-(4-methoxyphenyl)ethyl)acetamide] |  |  | 34 | 23
CC(NC(=O)COc1cc(C(F)(F)F)c2c(-c3ccccc3)nn(C)c2n1)c1cccnc1 (stereo not shown) [Example 1.30, 2-(1-methyl-3-phenyl-4-(trifluoromethyl)-1H-pyrazolo[3,4-b]pyridin-6-yloxy)-N-(1-(pyridin-3-yl)ethyl)acetamide] | 0.97 | 0.582 |  | 
COc1ccc(CNC(=O)COc2cc(C)c3c(C4CC4)nn(C)c3n2)cc1 [Example 6.67, 2-(3-cyclopropyl-1,4-dimethyl-1H-pyrazolo[3,4-b]pyridin-6-yloxy)-N-(4-methoxybenzyl)acetamide] |  |  | 40 | 29
Cc1cc(OCC(=O)NC(C)c2cc(CC(C)(C)C)on2)nc2c1c(C1CC1)nn2C (stereo not shown) [Example 6.48, 2-(3-cyclopropyl-1,4-dimethyl-1H-pyrazolo[3,4-b]pyridin-6-yloxy)-N-(1-(5-neopentylisoxazol-3-yl)ethyl)acetamide] |  |  | < 10 | < 10
Cc1ccc(C(C)NC(=O)COc2cc(C(F)F)c3c(-c4ccccc4)nn(C)c3n2)cn1 (stereo not shown) [Example 6.18, 2-(4-(difluoromethyl)-1-methyl-3-phenyl-1H-pyrazolo[3,4-b]pyridin-6-yloxy)-N-(1-(6-methylpyridin-3-yl)ethyl)acetamide] | 0.535 | 0.098 |  | 
Cc1cc(OCC(=O)NC2CCCC2)nc2c1c(C1CC1)nn2C [Example 6.46, N-cyclopentyl-2-(3-cyclopropyl-1,4-dimethyl-1H-pyrazolo[3,4-b]pyridin-6-yloxy)acetamide] |  |  | 26 | 16
COc1cncc(-c2nn(C)c3nc(OCC(=O)N[C@@H](C)c4ccc(C)cc4)cc(C)c23)n1 [Example 4.12, (S)-2-(3-(6-methoxypyrazin-2-yl)-1,4-dimethyl-1H-pyrazolo[3,4-b]pyridin-6-yloxy)-N-(1-p-tolylethyl)acetamide] | 0.24 | 0.202 |  | 
Cc1cc(OCC(=O)N[C@@H](C)C2CCCC2)nc2c1c(C1CC1)nn2C [Example 6.56, (S)-N-(1-cyclopentylethyl)-2-(3-cyclopropyl-1,4-dimethyl-1H-pyrazolo[3,4-b]pyridin-6-yloxy)acetamide] |  |  | < 10 | < 10
COc1ccc(C(C)NC(=O)COc2cc(C)c3c(C4CC4)nn(C)c3n2)cc1F (stereo not shown) [Example 7.19, 2-(3-cyclopropyl-1,4-dimethyl-1H-pyrazolo[3,4-b]pyridin-6-yloxy)-N-(1-(3-fluoro-4-methoxy-phenyl)ethyl)acetamide] | 2.62 | 0.674 |  | 
Cc1cc(OCC(=O)NC(C)c2cnc3c(ccn3C)c2)nc2c1c(C1CC1)nn2C (stereo not shown) [Example 8.1, 2-(3-cyclopropyl-1,4-dimethyl-1H-pyrazolo[3,4-b]pyridin-6-yloxy)-N-(1-(1-methyl-1H-pyrrolo[2,3-b]pyridin-5-yl)ethyl)acetamide] | 0.092 | 0.165 |  | 
Cc1ccc2c(c1)C(NC(=O)COc1cc(C)c3c(C4CC4)nn(C)c3n1)CC2 (stereo not shown) [Example 7.28, 2-(3-cyclopropyl-1,4-dimethyl-1H-pyrazolo[3,4-b]pyridin-6-yloxy)-N-(6-methyl-2,3-dihydro-1H-inden-1-yl)acetamide] |  |  | 37 | 34
Cc1n[nH]c(C)c1[C@@H](C)NC(=O)COc1cc(C(F)(F)F)c2c(-c3ccccc3)nn(C)c2n1 [Example 1.62, (R)-N-(1-(3,5-dimethyl-1H-pyrazol-4-yl)ethyl)-2-(1-methyl-3-phenyl-4-(trifluoromethyl)-1H-pyrazolo[3,4-b]pyridin-6-yloxy)acetamide] |  |  | 36 | 
COc1ccc([C@H](C)NC(=O)COc2cc(C)c3c(-c4cc(OC)cc(OC)c4)nn(C)c3n2)cc1 [Example 6.1, (S)-2-((3-(3,5-dimethoxyphenyl)-1,4-dimethyl-1H-pyrazolo[3,4-b]pyridin-6-yl)oxy)-N-(1-(4-methoxyphenyl)ethyl)acetamide] |  | 0.185 |  | 
COc1ccc2c(c1)CC[C@H]2NC(=O)COc1cc(C)c2c(C3CC3)nn(C)c2n1 [Example 6.4, (R)-2-(3-cyclopropyl-1,4-dimethyl-1H-pyrazolo[3,4-b]pyridin-6-yloxy)-N-(5-methoxy-2,3-dihydro-1H-inden-1-yl)acetamide] | 1.76 |  |  | 

Reference: patent publication US8742106B2 (Novartis AG, priority 2009, dated 2014)
